Data taken from BindingDB's records for doi:10.1016/j.bmcl.2003.10.011 (University of Hamburg, 2003).

Biological target: Alpha-galactosidase (Aspergillus niger)
Test: Compound tested for inhibition of alpha-galactosidase from Aspergillus niger

Ki | Structure (SMILES)
300 µM | C[C@@H](OC[C@H]1O[C@@H](O)[C@H](O)[C@H](O)[C@@H]1O)[C@H](N)C(=O)O [2-(R)-Amino-3-(3,4,5,6-tetrahydroxy-tetrahydro-pyran-2-ylmethoxy)-butyric acid]
400 µM | N[C@@H](COC[C@H]1O[C@@H](O)[C@H](O)[C@H](O)[C@@H]1O)C(=O)O [2-Amino-3-(3,4,5,6-tetrahydroxy-tetrahydro-pyran-2-ylmethoxy)-propionic acid]
